Experimental data as given in patent US20190125745A1, “TREATMENT AND DIAGNOSIS OF CANCER” (Rgenix, Inc., priority 2014, published 2019).
Counter-ions that a name gives are not always drawn.

Legend:
[1] = system: MeWo, HT-144, SK-Mel-2, SK-Mel-334.2 human melanoma cells; assay: Cell invasion assay (trans-well matrigel); type: cell-based; settings: MeWo, 1 μM, 72 hours
Source text: FIG. 2. Activation of LXRβ Signaling Suppresses Melanoma Cell Invasion and Endothelial Recruitment. (A) Heat-map depicting microarray-based expression levels of LXR and RXR isoforms in the NCI-60 melanoma cell line collection. The heat map for these genes is extracted from the larger nuclear hormone receptor family heat map (FIG. 3). Color-map key indicates the change in standard deviations for the expression value of each receptor relative to the average expression value of all microarray-profiled genes (>39,000 transcript variants) in each cell line. (B) Cell invasion by 1×10^5 MeWo, 5×10^4 HT-144, 5×10^5 SK-Mel-2, and 5×10^4 SK-Mel-334.2 human melanoma cells. Cells were treated with DMSO, GW3965, T0901317, or Bexarotene at 1 μM for 72 hours and subjected to a trans-well matrigel invasion assay. n=4-8. (C) 5×10^4 MeWo, HT-144, SK-Mel-2, and SK-Mel-334.2 human melanoma cells were tested for their ability to recruit 1×10^5 endothelial cells in a trans-well migration assay, following treatment of the melanoma cells with DMSO, GW3965, T0901317, or Bexarotene at 1 μM for 72 hours. n=4-8. […] Scale bar, 50 μm. *p<0.05, **p<0.01, ***p<0.001, ****p<0.0001.
The cell invasion assay was performed as previously described in detail (Pencheva et al., 2012) using a trans-well matrigel invasion chamber system (354480, BD Biosciences). In brief, various melanoma cells were cultured in the presence of DMSO, GW3965, T0901317, or Bexarotene at 1 μM for 56 hours, after which melanoma cells were switched to starvation media (0.2% FBS) for 16 hours in the presence of each drug. Following starvation, cells were seeded into matrigel-coated trans-well inserts, and the invasion assay was allowed to proceed for 24 hours at […]. For ApoE antibody neutralization experiments, 40 μg/mL 1 D7 anti-ApoE blocking antibody (Heart Institute, University of Ottawa, Ottawa, Canada) or […] anti-IgG control antibody (AB-108-C, R&D Systems, Minneapolis, Minn.) was added to each trans-well insert at the start of the assay.
(§1) The cells were then serum starved for 16 hours in 0.2% FBS media in the presence of each corresponding drug or DMSO. Following serum starvation, the cells were subjected to the trans-well invasion assay using a matrigel invasion chamber system (354480, BD Biosciences). Invasion chambers were pre-equilibrated prior to the assay by adding 0.5 mL of starvation media to the top and bottom wells. Meanwhile, cancer cells were trypsinized and viable cells were counted using trypan blue. Cancer cells were then resuspended at a concentration of 2×10^5 cells/1 mL starvation media, and 0.5 mL of cell suspension, containing 1×10^5 cells, was seeded into each trans-well. The invasion assay was allowed to proceed for 24 hours at 37° C. […] Following fixation, the inserts were washed in PBS, cut out, and mounted onto slides using VectaShield mounting medium containing DAPI nuclear stain (H-1000, Vector Laboratories). The basal side of each insert was imaged using an inverted fluorescence microscope (Zeiss Axiovert 40 CFL) at 5× magnification, and the number of DAPI-positive cells was quantified using ImageJ.

[2] = system: MeWo human melanoma cells; assay: Subcutaneous MeWo tumor growth in immunocompromised mice; type: in vivo; settings: oral
Description: FIG. 4. Therapeutic LXR Activation Inhibits Melanoma Tumor Growth. […] Representative tumor images shown correspond to tumors extracted at the final day (d12). n=10-18 (A), 8-10 (B). (C-E) Primary tumor growth by 1×10^6 MeWo (C), […] SK-Mel-334.2 (D), and 2×10^6 SK-Mel-2 (E) human melanoma cells subcutaneously injected into immunocompromised mice. […] Tumor images shown correspond to last day of measurements. n=6-34 (C), 8 (D), 5 (E). (F) 5×10^4 B16F10 cells were injected subcutaneously into C57BL/6-WT mice. Upon tumor growth to 150 mm^3, mice were fed continuously with a control chow or a chow containing GW3965 (150 mg/kg), and tumor growth was measured daily. n=6-13. […] Tumor volume was calculated as (small diameter)^2×(large diameter)/2. […] Scale bars, 5 mm (A-D), 50 μm (J, K), 25 μm (L).

ApoE promoter = ApoE promoter activity assay (luciferase, ME.1/ME.2); type: cell-based, human; settings: 1 μM
Source text: FIG. 11. LXRβ Activation Suppresses Melanoma Invasion and Endothelial Recruitment by Transcriptionally Enhancing Melanoma-Cell ApoE Expression. […] Scale bar, 50 μm.
The ApoE promoter, consisting of a sequence spanning 980 base pairs upstream and 93 base pairs downstream of the ApoEgene, was cloned into a pGL3-Basic vector (E1751, Promega Corporation, Madison, Wis.) upstream of the firefly luciferase gene using NheI and SacI restriction enzymes. Then, multi-enhancer elements 1 (ME.1) and 2 (ME.2) were cloned directly upstream of the ApoE promoter using MluI and […] restriction enzymes. To assess ApoE promoter- and ME.1/ME.2-driven transcriptional activation by LXR agonists, 5×10^4 MeWo cells were seeded into a 24-well plate. […] To assess transcriptional activation by LXRα or LXRβ, 5×10^4 MeWo cells expressing a control shRNA or shRNA targeting LXRα or LXRβ were seeded into a 24-well plate. […] After 24 hours, cells were lysed, and cell lysate was analyzed for firefly and renilla luciferase activity using the Dual Luciferase Assay System (E1960, Promega) and a Bio-Tek Synergy NEO Microplate Reader. Firefly luciferase signal was normalized to renilla luciferase signal and all data are expressed relative to the luciferase activity ratio measured in the DMSO-treated control cells.

[3] = system: RCC human renal cancer cells, PANC1 human pancreatic cancer cells, H460 human lung cancer cells; assay: Trans-well matrigel invasion of renal, pancreatic and lung cancer cells; type: cell-based; settings: 1 μM, 72 hours
Description: FIG. 17. Treatment with the LXR agonist GW3965 inhibits In Vitro tumor cell invasion of renal cancer, pancreatic cancer, and lung cancer.
as §1, with “Following” for “The cells were then serum starved for 16 hours in 0.2% FBS media in the presence of each corresponding drug or DMSO. Following”, “1×10^5” for “2×10^5”, “5×10^4” for “1×10^5”, “37′C.” for “37° C.”, “PBS and then” for “PBS,”, “out” for “out,”

ApoE expression = ApoE expression by qRT-PCR in human melanoma cells
Description: (A-B) Parental MeWo cells were incubated in the presence of DMSO or GW3965 at the indicated concentrations. After 48 hours, total RNA was extracted, and the levels of ApoE (A) and DNAJA4 (B) were determined by qRT-PCR. n=3. (C) Cell invasion by 1×10^5 parental MeWo cells pre-treated with GW3965 or DMSO for 48 hours. n=6-7. p-values based on a one-sided student's t-test. […] (D) Endothelial recruitment by 5×10^4 parental MeWo cells pre-treated with GW3965 or DMSO for 48 hours. n=6-7. p-values based on a one-sided student's t-test. (E) Mice were fed with grain-based chow diet containing GW3965 (20 mg/kg) or a control diet. After 10 days, 4×10^4 parental MeWo cells were tail-vein injected into mice, and the mice were continuously fed with GW3965-containing chow or a control diet throughout the experiment.
(A-C) MeWo (A), HT-144 (B), and WM-266-4 (C) human melanoma cells were treated with GW3965 or T0901317 at the indicated concentrations for 48 hours, and the expression levels of ApoE were analysed by qRT-PCR. n=3. (D) Extracellular ApoE protein levels, quantified by ELISA, in serum-free conditioned media collected from HT-144 human melanoma cells treated with DMSO, GW3965, or T0901317 at 1 μM for 72 hours. n=3-4. […] (I-J) Relative ApoE expression, quantified by qRT-PCR, in MeWo (I) and HT-144 (J) cells transduced with a control shRNA or shRNAs targeting LXRα or LXRβ and subsequently treated with DMSO, GW3965, or T0901317 at 1 μM for 48 hours. n=3-9. (K) Extracellular ApoE protein levels, measured by ELISA, in serum-free conditioned media harvested from HT-144 cells transduced with a control shRNA or an shRNA targeting LXRα or LXRβ and treated with DMSO or GW3965 at 1 μM for 72 hours. n=3.
RNA was extracted from whole cell lysates using the Total RNA Purification Kit (17200, Norgen, Thorold, Canada). 600 ng of total RNA was then reverse transcribed into cDNA using the cDNA First-Strand Synthesis Kit (18080-051, Invitrogen), and quantitative real-time PCR amplification was performed as previously described (Pencheva et al., 2012) using an ABI Prism 7900HT Real-Time PCR System (Applied Biosystems, Austin, Tex.). […]
For every sample, 600 ng of RNA was reverse transcribed into cDNA using the cDNA First-Strand Synthesis kit (Invitrogen). […] Each reaction was carried out in quadruplicates, and ApoE mRNA expression levels were measured by quantitative real-time PCR amplification using an ABI Prism 7900HT Real-Time PCR System (Applied Biosystems). The relative ApoE expression was determined using the ΔΔCt method.

O=C(O)Cc1cccc(OCCCN(Cc2cccc(C(F)(F)F)c2Cl)CC(c2ccccc2)c2ccccc2)c1 [GW3965 108, 3-[3-[N-(2-Chloro-3-trifluoromethylbenzyl)-(2,2-diphenylethyl)amino]propyloxy] phenylacetic acid hydrochloride]
suppression of cell invasion and endothelial recruitment upon knockdown of ApoE in melanoma cells [1]: blocked | ability to suppress invasion and endothelial recruitment upon knockdown of melanoma LXRβ, but not LXRα ([1]; HT-144): abrogated | inhibition of tumor growth, MeWo [2]: 70% | ability to upregulate ApoE transcription and protein expression upon melanoma cell depletion of LXRβ, but not LXRα (ApoE promoter): abrogated | tumor cell invasion in all three cancer types tested [3]: inhibition | potency of inducing ApoE expression in vitro (ApoE expression): potently induce
